Measured values published in ChEMBL document CHEMBL4411263, “Isolation of Tryptanthrin and Reassessment of Evidence for Its Isobaric Isostere Wrightiadione in Plants of the Wrightia Genus” (J Nat Prod, 2019).
In brackets after ≈: the same amount, converted by molar mass.

Columns and labels:
[1] = tested on: Mycobacterium tuberculosis; experiment: Antitubercular activity against Mycobacterium tuberculosis H37Rv ATCC 27294 incubated for 1 week by MABA; format: functional; details: H37Rv ATCC 27294, 168 h
Vero = experiment: Cytotoxicity against African green monkey Vero cells by CellTiter 96 aqueous nonradioactive cell proliferation assay; format: cell-based; details: Chlorocebus sabaeus
[2] = tested on: Mycobacterium tuberculosis; experiment: Antitubercular activity against Mycobacterium tuberculosis H37Rv; format: functional

SMILES | MIC90 [1] | IC50 (Vero) | MIC [2]
CO[C@H]1/C=C/O[C@@]2(C)Oc3c(C)c(O)c4c(O)c(c(/C=N/N5CCN(C)CC5)c(O)c4c3C2=O)NC(=O)/C(C)=C\C=C\[C@H](C)[C@H](O)[C@@H](C)[C@@H](O)[C@@H](C)[C@H](OC(C)=O)[C@@H]1C [RIFAMPIN] | 0.05 µg/mL (≈ 0.0608 µM) | 97.4 µg/mL (≈ 118 µM) | –
O=C1c2ccccc2-n2c1nc1ccccc1c2=O [TRYPTANTHRIN] | 7.59 µg/mL (≈ 30.6 µM) | > 100 µg/mL | 1 µg/mL (≈ 4.03 µM)
